We go through 14 compounds from ChEMBL document CHEMBL1201862, “PubChem BioAssay data set” (2004).

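In this assay, cells in 96-well plates receive the compound at five concentrations for 48 hours. Endpoints are linearly interpolated between the surrounding concentrations. Here, GI50 denotes the concentration required for 50% inhibition of growth.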 Activity calls are given as the source filed them. Cut-off read from the data, not from the text of the source: active = GI50 up to about 1.1 µM and inactive = higher.

Some test systems named below: M19-MEL; LXFL 529; DMS-114; KM-20L2; XF498; HOP-18; MDA-N; Hs-578T.
Holding throughout (test): growth of human tumour cells (NCI), 48 h

Take `O=C(O)CC1CC=C[C@H]2c3cc4c(cc3C(=O)NC12)OCO4` (stereo partly drawn): the GI50 in the test on M19-MEL, in the test with LXFL 529, with DMS-114 and with KM-20L2 was > 75 µM (inactive) throughout.

As for `CCCCN/C(=N/C#N)NCc1ccccc1`, the GI50 in the test with M19-MEL, in the test with XF498, in the test with LXFL 529 and in the test on KM-20L2 was > 100 µM (inactive) each time.

In the case of `CCc1cc(C)cc2[n+]1CC=C2.[O-][Cl+3]([O-])([O-])[O-]`, the GI50 with M19-MEL was 13.8 µM (inactive); in the test on XF498 it was 2.56 µM (inactive); in the test with LXFL 529, 4.17 µM (inactive); in the test with HOP-18 it was 0.0676 µM (active); in the test on DMS-114, 10 µM (inactive); in the test on KM-20L2, 21.5 µM (inactive).

As for `CC(=O)OCCc1cccnc1/C=N/O`, the GI50 with M19-MEL, with XF498, in the test with LXFL 529, in the test on HOP-18, with DMS-114 and in the test on KM-20L2 was > 100 µM (inactive) throughout.

As for `CCN1/C(=C/C(C)=C/c2sc3ccccc3[n+]2CC)Sc2ccccc21`, the GI50 is 0.173 µM (active) in the test with M19-MEL; 0.0762 µM (active) with XF498; 0.0331 µM (active) in the test on LXFL 529; 0.082 µM (active) in the test on DMS-114; 0.191 µM (active) with KM-20L2.

Take `C(/COc1cccnc1)=N\NC1=NCCN1`: the GI50 in the test with M19-MEL, in the test with XF498, with LXFL 529, in the test on HOP-18, in the test on DMS-114 and with KM-20L2 was > 100 µM (inactive) in each case.

For the compound `O=c1cc(-c2ccc(O)cc2)oc2cc(O)cc(O)c12` [APIGENIN], the GI50 with M19-MEL is 33.5 µM (inactive); in the test on XF498, 24.2 µM (inactive); with LXFL 529, 18.2 µM (inactive); in the test with DMS-114 it was 32.3 µM (inactive); in the test on KM-20L2, 28.8 µM (inactive).

Regarding `Cc1cc(N(CCC#N)CCC#N)ccc1/N=N/c1ccc(C(=O)O)cc1`, the GI50 in the test on M19-MEL is > 100 µM (inactive); in the test on XF498, > 100 µM (inactive); in the test on LXFL 529 it was > 100 µM (inactive); in the test on HOP-18, 58.9 µM (inactive); in the test on DMS-114, > 100 µM (inactive).

For `O=c1oc2c3ccc4ccccc4c3n(Cc3nc4ccccc4[nH]3)c2c2ccccc12`, the GI50 in the test with M19-MEL is 5.46 µM (inactive); in the test on LXFL 529, 9.66 µM (inactive); in the test with HOP-18, 7.57 µM (inactive); in the test with DMS-114, 4.95 µM (inactive); with KM-20L2, > 69.5 µM (inactive).

Take `COC(=O)C1=C(C)C(=O)C2(CCCCCC2C(=O)OC)C1` (stereo not drawn): the GI50 in the test with M19-MEL, with LXFL 529, in the test on HOP-18, in the test on DMS-114 and in the test with KM-20L2 was > 100 µM (inactive) throughout.

As for `O/N=C/c1ccc(O)c(O)c1`, the GI50 with M19-MEL was > 100 µM (inactive); in the test with XF498, > 100 µM (inactive); in the test on LXFL 529, 84.9 µM (inactive); in the test with DMS-114, 14.7 µM (inactive); in the test on KM-20L2, > 100 µM (inactive).

Consider `CN(C)CC/C(=N\Nc1c(Cl)cccc1Cl)c1ccccc1`, for which the GI50 was 18.3 µM (inactive) in the test with M19-MEL; 14.8 µM (inactive) in the test with LXFL 529; 15.1 µM (inactive) in the test with HOP-18; 17.3 µM (inactive) with DMS-114; 17.1 µM (inactive) with KM-20L2.

On to `Cn1cc2ccccc2c1-c1nc(F)nc(Oc2ccc3c(c2)CC[C@@H]2C3CC[C@@]3(C)C2CC[C@@H]3O)n1` (stereo partly drawn), for which the GI50 with M19-MEL was 7.98 µM (inactive); with LXFL 529, 3.71 µM (inactive); in the test on HOP-18, 18.2 µM (inactive); in the test with DMS-114 it was 3.66 µM (inactive); in the test on KM-20L2, 19.1 µM (inactive).

With `OC[C@H]1O[C@@H](Oc2cc(O)cc(/C=C/c3ccc(O)cc3)c2)[C@H](O)[C@@H](O)[C@@H]1O` [PICEID], the GI50 in the test on MDA-N and with Hs-578T was > 100 µM (inactive) in each case.
